We go through 90 compounds from a melting point compilation (Tetko et al.; mined from patent text by program, amines drawn as free bases though some values may be those of a salt).

Bounds are passed on as bounds.

By melting point is commonly meant the temperature of the solid-liquid transition.

The compound `O=C1CC(=CCl)c2c(O)cc(O)cc2O1` yielded a melting point of 228 to 230 °C. In turn, `COc1cc(NS(C)(=O)=O)c(Oc2ccccc2)cc1C(C)=O` displayed a melting point of 108 to 110 °C. `O=C1CSCCN1c1ccc(C(F)(F)F)cc1` showed a melting point of 79 to 80 °C. Turning to `Cc1oc(-c2ccccc2)nc1CCCc1ccc(CC(C(=O)O)c2cccc(-c3ccccc3)c2)cc1` (stereo not given), the melting point is 75 to 80 °C. For the compound `Cc1cc(Oc2ccc3nc(COc4ccc(CC5SC(=O)NC5=O)cc4)n(C)c3c2)cc(C)c1N` (stereo not given), the melting point fell in the range of 209 to 211 °C. The compound `C=C1C(=O)OC2C1CCC(CO)=CCCC1(C)OC21` (stereo not given) came in with a melting point of 172 to 176 °C. Turning to `Cc1ccc(O)c(C(=O)Nc2cc(Cl)cc(Cl)c2)c1`, the melting point was 216 to 217 °C. With `COc1cc(C2C3=C(COC3=O)Nc3ccc4cc[nH]c4c32)ccc1F` (stereo not given) the figure was 170 to 172 °C; with `CCCCc1cc(=O)c2ccccc2[nH]1`, 140 °C. As for `Cc1noc(C)c1-c1cncc(OC2SCC(O)C(O)C2O)c1` (stereo not given), the melting point was in the range of 222 to 223 °C. `NS(=O)(=O)c1ccc(-n2nc(C(F)(F)F)cc2-c2ccc(-c3ncco3)cc2)cc1` showed a melting point of 215 to 217 °C.

In turn, `O=C1CCC(c2ccc(-c3ccc(Cl)cc3)cc2)=NO1` showed a melting point of 190 to 192 °C. Compound `C=CCOc1cccc2nn(C)c(S(N)(=O)=O)c12` came in with a melting point of 143 to 144 °C. For `Fc1ccc(CNc2nc3ccccc3n2-c2ccc(F)c(F)c2)cc1F`, the melting point is 158 to 160 °C. Regarding `O=C(CO)Cc1ccc(Cl)cc1`, the melting point was determined as 53.5 °C. `CCc1cc(Br)c2c(O)c(C(=O)OC)c(C(=O)OC)nc2c1` returned a melting point of 207 to 208 °C. `O=C(c1c(F)cccc1F)N1CS(=O)CN(c2ccc(Cl)cc2)C1=O` (stereo not given): the melting point amounted to 220 °C.

In turn, `CCCc1c(OCCCS(=O)(=O)c2ccc(C3=CCC(=O)O3)cc2)ccc(C(C)=O)c1O` gave a melting point of 135 to 136 °C. As for `COc1ccc(C(=O)[C@H]2CC=CC[C@H]2C(=O)O)cc1F` (relative stereo), the melting point fell in the range of 185 to 187 °C. For `NNc1nccc(-c2cccc(C(F)(F)F)c2)n1`, the melting point lay in the range of 103 to 106 °C.

Take `CNC1(c2ccc(C#CC(=O)Nc3ccc(-c4ccc(Cl)cc4)cc3)cc2)CC1`: the melting point was 217 °C. Take `CCCc1c(OCCCCCc2c(O)c(O)cc(Cl)c2Cl)ccc(C(=O)O)c1O`: the melting point was in the range of 159 to 164 °C. The compound `COc1ccc(-c2cnc3[nH]cc(C(=O)C(C)(C)C)c3n2)cc1N1CCCC1` showed a melting point of 211 to 213 °C. Take `O=C1N[C@H](Cc2cccc(OC(F)(F)C(F)F)c2)[C@H](c2ccc(Oc3ccccc3)cc2)O1` (racemic): the melting point lay within 90 to 91 °C. In turn, `Cc1cc(-n2ccc(CCc3ccccc3)cc2=O)sc1C(=O)NCc1ccccc1` showed a melting point of 145 to 146 °C. `CC(=O)OCc1nnc2n1-c1sc(Cl)cc1C(c1ccccc1Cl)=NC2`: the melting point was in the range of 191 to 193 °C. `Cc1ccnc(-c2cccc([N+](=O)[O-])c2)c1` displayed a melting point of 80 to 82 °C.

On to `CCOC(=O)C1=CC(NC(=NC(=O)OC(C)(C)C)NC(=O)OC(C)(C)C)C(NC(C)=O)C(C(O)C2COC(C)(C)O2)O1` (stereo not given), for which the melting point is 118 to 120 °C. For `O=[N+]([O-])c1ccc(F)c(-c2ccccn2)c1F`, the melting point is 84 to 86 °C. `Brc1ccc(NN=C(Cc2ccco2)c2ccccc2)nc1`: the melting point lay within 105 to 107 °C. Turning to `CC(=O)OC1CSC(Oc2ccnc(Br)c2)C(OC(C)=O)C1OC(C)=O` (stereo not given), the melting point amounted to 162 °C. With `CCOC(=O)CCCCN(C(=O)c1ccc(Cl)cc1)c1cccc2ccccc12` the figure was 74 to 75 °C; with `NN1C(=O)C(C(=O)C(Cc2ccc3ccccc3c2)NC(=O)OCc2ccccc2)C1Oc1ccccc1` (stereo not given), 205 to 206 °C; with `CCOC(=O)C(C(N)=O)C12CC3CC(CC(C3)C1)C2` (stereo not given), 97 to 98 °C. With `CC(C)(C)c1cc(SCCC(=O)N(C2CCCCC2)C2CCCCC2)cc(C(C)(C)C)c1O` the figure was 168 to 172 °C; with `CC1CCN(c2cc(C(C)(C)C)ns2)C1=O` (stereo not given), 111 to 113 °C; with `COC(=O)c1ccc(-c2ccc3c(c2)C=C(C(=O)Nc2ccc(CN(C)C4CCOCC4)cc2)CCC3)cc1`, 176 to 183 °C.

Take `O=S(=O)(c1ccc(O)cc1)c1ncn(-c2ccccc2)c1-c1ccccc1`: the melting point is 300 °C.

`CC(=O)Oc1ccc(-c2ccc(CO)cc2S(=O)CC[Si](C)(C)C)cc1C` (stereo not given) registered a melting point of 132 to 134 °C. In the case of `CC(=S)Nc1ccc(-c2nc3ccccc3s2)cc1`, the melting point fell in the range of 222 to 223 °C. `O=C(Nc1cccc2[nH]ccc12)c1cc(O)cc(Cl)c1` came in with a melting point of 248 °C.

`CC(C)(C)CC(C)(C)c1cc(Cc2cc(C(C)(C)C)cc(C(C)(C)C)c2O)c(O)c(-n2nc3ccccc3n2)c1` had a melting point of 137 °C. `CCn1ncc2nc(C(=O)NC)c(-c3ccccc3)nc21` showed a melting point of 165 to 166 °C. With `CCNc1ncc2ccc(=O)n(-c3ccccc3)c2n1` the figure was 193 to 195 °C; with `CCOCc1nc2c(N)nc(C)c(C)c2n1CCCC(=O)N1CCOCC1`, 156 to 158 °C.

In turn, `COc1cc2c(-c3cc4cccnc4[nH]3)cn(C)c2cc1O` came in with a melting point of 250 °C. As for `CC(C)n1nc(-c2c(Cl)nc(N)nc2-c2ccccc2)ccc1=O`, the melting point lay in the range of 235 to 237 °C. `Cc1nnc2ccc(-c3cccc(N)c3)nn12` yielded a melting point of 193 °C.

Regarding `O=c1c2ccccc2sn1-c1ccccc1`, the melting point was in the range of 140 to 141 °C. In the case of `COc1ccc2c(c1)CCC1C2CCC2(C)C(NCCc3cccn3C)CCC12` (stereo not given), the melting point lay within 141 to 143 °C. With `CCCCCOc1ccc(C#CC2(O)CN3CCC2CC3)cc1` (stereo not given), the melting point was in the range of 153 to 154 °C.

`O=C(O)CCCCCCC1C(=O)NC(=O)N1CCCCCc1ccccc1` (stereo not given) showed a melting point of 90 to 92 °C. Regarding `CCC(COCc1cc(OC)c(O)c(OC)c1)(c1cccs1)N(C)C` (stereo not given), the melting point lay in the range of 126 to 127 °C.

Turning to `NC1=C([C@H]2CC[C@H](c3ccc(Cl)cc3)CC2)C(=O)c2ccccc2C1=O`, the melting point fell in the range of 210 to 215 °C. In turn, `CCN(CC)CCOC1=C(c2ccccc2)CN(Cc2ccc(Cl)cc2)C1=O` showed a melting point of 143 to 145 °C. As to `CC(=O)N1CCN(c2ccc(NS(C)(=O)=O)cc2)CC1`, the melting point lay within 165 to 167 °C.

`CCOC(=O)c1c(OC)nc2c(C)cc(C)cc2c1-c1ccccc1Cl` gave a melting point of 135 to 136 °C. Compound `Fc1cccc(Nc2nc(Cl)nc(NC3CCCCCC3)n2)c1` came in with a melting point of 148 °C. With `CCOC1Nc2c(ccc(C)c2O)C(=O)N2CCCC12` (stereo not given) the figure was 155 to 157 °C; with `O=C1CCC(Br)C(=O)N1` (stereo not given), 76 to 83 °C; with `CCCSc1ncc(C(=O)N[C@@H](Cc2ccc(O)cc2)C(=O)OC)n1Cc1ccccc1Cl`, 180 to 182 °C. `CCCCCCCNC(=O)Nc1c(C(=O)NC2CCN(C(c3ccccc3)c3ccccc3)CC2)cccc1N(C)C` displayed a melting point of 203 °C. Turning to `CC(=O)Nc1ncc(Cc2ccc(Cl)cc2)c(NC(C)=O)n1`, the melting point turned out to be 147 °C.

Turning to `CCOC(=O)C1=C(C)NC(=S)N(C(=O)OCC)C1c1ccccc1[N+](=O)[O-]` (stereo not given), the melting point was in the range of 130 to 132 °C. Compound `CNc1noc(C(C)c2cccc(C(=O)c3ccccc3)c2)n1` (stereo not given) had a melting point of 100 to 101 °C. `CC(C)(C)c1csc(-c2cc3cc(CC(C(=O)O)C(=O)O)ccc3o2)n1` displayed a melting point greater than 320 °C. `CCOC(=O)Cc1c[nH]c2cc(C(F)(F)F)nn2c1=O` yielded a melting point of 290 to 293 °C. As for `CCOC(=O)Cn1c(C(=O)NCc2nnc3n2-c2sc(CC)cc2C(c2ccccc2Cl)=NC3)cc2ccccc21`, the melting point is 215 to 217 °C. In turn, `Nc1cccc(-c2cc3ccccc3[nH]2)c1` registered a melting point of 166 °C.

The compound `O=C(/C=C/c1ccc(C(F)(F)F)cc1Br)Nc1ccc2ncsc2c1` yielded a melting point of 214 to 215 °C. `COC(COc1ccc(C(=O)C(C)(C)O)cc1)OC` registered a melting point of 52 to 53 °C. `CSc1cccc(COCCCO)c1NC(=O)CC1c2ccccc2Oc2ccccc21` yielded a melting point of 207 to 208 °C.

`COC(=O)c1ccc(SC(Cn2ccnc2)c2ccc(Cl)cc2Cl)cc1` (stereo not given) registered a melting point of 121 to 124 °C. `Cc1cc(C)nc(S(=O)(=O)Nc2c(C)cccc2Cl)n1` returned a melting point of 215 to 219 °C. As to `Cn1cc(-c2cc(-c3ccsc3)ccn2)n(-c2ccc(C(C)(C)C#N)cc2)c1=O`, the melting point turned out to be 209 °C. `O=C1c2c(Cl)cccc2-n2cnc(I)c2[C@@H]2CCCN12` had a melting point of 298 to 300 °C. Compound `Clc1ccc(C(N=C2NCCN2)c2ccccc2)cc1` (stereo not given) showed a melting point of 187 to 189 °C.

`CC(=O)OCC1OC(OC(C)=O)C(N=[N+]=[N-])C([N+](=O)[O-])C1OC(C)=O` (stereo not given) yielded a melting point of 118 to 120 °C.

`Cc1ccc(-c2nc(N)ncc2-c2ccc(=O)[nH]n2)cc1` showed a melting point of 249 °C. `O=c1c2c(CC3CCCCC3)n[nH]c2c2cccnc2n1-c1ccccc1` yielded a melting point of 280 to 281 °C. `c1ccc2c(c1)NCc1c(-c3noc(C4CC4)n3)ncn1-2`: the melting point lay within 243 to 245 °C. As to `CCCCC[C@H]1CC[C@H](c2ccc(Br)nn2)CC1`, the melting point lay within 101 to 103 °C. On to `Cc1nn(-c2ccc(C(F)(F)F)cn2)cc1COc1ccc(CCC(=O)O)cc1`, for which the melting point lay in the range of 195 to 196 °C. In the case of `CN(C)c1cc(N)c(C(=O)O)cc1[N+](=O)[O-]` it was 240 to 250 °C; in that of `Nc1cccc(-c2ccc3nncn3n2)c1`, 225 °C; in that of `O=C(C=Cc1ccc(Cl)cc1)C(CC=Cc1ccccc1)c1ccccc1` (stereo not given), 92 to 95 °C. With `Cc1c(C(=O)OCc2ccccc2)sc(NC(=O)c2cccnc2)c1C(=O)OC(C)(C)C`, the melting point lay in the range of 165 to 166 °C. `C=C(CCCl)C(=O)c1ccc(OC)c(Cl)c1Cl` displayed a melting point of 58 to 60 °C.

The compound `CC1CCCCC1NC(=O)[C@@H](C)NC(=O)[C@@H](N)CC(=O)O` (stereo not given in full) gave a melting point of 206 to 209 °C. In the case of `CNC(=S)N1CCN(c2cnccn2)CC1` it was 197 to 200 °C.
